# Measured values as given in ChEMBL document CHEMBL1201862, “PubChem BioAssay data set” (2004).
#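 Step 1: Grow cells in 96-well plates. Step 2: Expose to compound for 48 hours at 5 concentrations. Step 3: Interpolate endpoints linearly; if unreached, use highest concentration. GI50 marks 50% less growth.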 Active and inactive are the calls of the source. Cut-off read from the data, not from the text of the source: active = GI50 up to about 1.1 µM and inactive = higher.
# Columns and labels:
# Experiment in all cases: inhibition of tumour cell growth, NCI panel, 48 h
# NCI-H226 = test system: NCI-H226
# ACHN = test system: ACHN
# HOP-62 = test system: HOP-62
# A549 = test system: A549
# SN12C = test system: SN12C
# DMS-114 = test system: DMS-114
# HOP-18 = test system: HOP-18
# SF-539 = test system: SF-539
# SK-MEL-5 = test system: SK-MEL-5
# OVCAR-4 = test system: OVCAR-4
# M14 = test system: M14
# COLO 205 = test system: COLO 205
# OVCAR-3 = test system: OVCAR-3
# LXFL 529 = test system: LXFL 529
# KM12 = test system: KM12
# NCI-H23 = test system: NCI-H23
# DLD-1 = test system: DLD-1
# A498 = test system: A498
# UACC-62 = test system: UACC-62
# OVCAR-8 = test system: OVCAR-8
# RXF 631 = test system: RXF 631
# HOP-92 = test system: HOP-92
# SR = test system: SR
# SK-OV-3 = test system: SK-OV-3
# MOLT-4 = test system: MOLT-4
# NCI-H522 = test system: NCI-H522
# TK-10 = test system: TK-10
# HCT-116 = test system: HCT-116
# IGROV-1 = test system: IGROV-1
# RPMI-8226 = test system: RPMI-8226
# NCI-H460 = test system: NCI-H460
# SK-MEL-28 = test system: SK-MEL-28
# M19-MEL = test system: M19-MEL
# UO-31 = test system: UO-31
# SW-620 = test system: SW-620
# Malme-3M = test system: Malme-3M
# HCT-15 = test system: HCT-15
# UACC-257 = test system: UACC-257
# HL-60 = test system: HL-60
# SNB-19 = test system: SNB-19
# CCRF-CEM = test system: CCRF-CEM
# SF-295 = test system: SF-295
# U-251 = test system: U-251
# LOX IMVI = test system: LOX IMVI
# HT-29 = test system: HT-29
# 786-0 = test system: 786-0
# EKVX = test system: EKVX
# SNB-75 = test system: SNB-75
# SF-268 = test system: SF-268
# RXF 393 = test system: RXF 393
# SNB-78 = test system: SNB-78
# OVCAR-5 = test system: OVCAR-5
# CAKI-1 = test system: CAKI-1
# KM-20L2 = test system: KM-20L2
# HCC 2998 = test system: HCC 2998
# DMS-273 = test system: DMS-273
# K562 = test system: K562
# SK-MEL-2 = test system: SK-MEL-2
smiles,measurement,setting,value
O=C(COc1ccc(/C=C/C(=O)c2ccc(Cl)cc2)cc1)Nc1c(Cl)cccc1Cl,GI50,NCI-H226,> 100 µM (inactive)
same,GI50,ACHN,> 100 µM (inactive)
same,GI50,HOP-62,> 100 µM (inactive)
same,GI50,A549,> 100 µM (inactive)
same,GI50,SN12C,> 100 µM (inactive)
same,GI50,DMS-114,33.3 µM (inactive)
same,GI50,HOP-18,> 100 µM (inactive)
same,GI50,SF-539,80.7 µM (inactive)
same,GI50,SK-MEL-5,48.3 µM (inactive)
same,GI50,OVCAR-4,94 µM (inactive)
same,GI50,M14,> 100 µM (inactive)
same,GI50,COLO 205,> 100 µM (inactive)
same,GI50,OVCAR-3,> 100 µM (inactive)
same,GI50,LXFL 529,78.7 µM (inactive)
same,GI50,KM12,67.5 µM (inactive)
same,GI50,NCI-H23,77.8 µM (inactive)
same,GI50,DLD-1,> 100 µM (inactive)
same,GI50,A498,> 100 µM (inactive)
same,GI50,UACC-62,> 100 µM (inactive)
same,GI50,OVCAR-8,51.4 µM (inactive)
same,GI50,RXF 631,> 100 µM (inactive)
same,GI50,HOP-92,19.1 µM (inactive)
same,GI50,SR,50 µM (inactive)
same,GI50,SK-OV-3,58.3 µM (inactive)
same,GI50,MOLT-4,10.7 µM (inactive)
same,GI50,NCI-H522,33.1 µM (inactive)
same,GI50,TK-10,> 100 µM (inactive)
same,GI50,HCT-116,38.2 µM (inactive)
same,GI50,IGROV-1,> 100 µM (inactive)
same,GI50,RPMI-8226,30.2 µM (inactive)
same,GI50,NCI-H460,> 100 µM (inactive)
same,GI50,SK-MEL-28,> 100 µM (inactive)
same,GI50,M19-MEL,> 100 µM (inactive)
same,GI50,UO-31,> 100 µM (inactive)
same,GI50,SW-620,> 100 µM (inactive)
same,GI50,Malme-3M,> 100 µM (inactive)
same,GI50,HCT-15,> 100 µM
same,GI50,UACC-257,79.8 µM (inactive)
same,GI50,HL-60,0.0607 µM (active)
same,GI50,SNB-19,> 100 µM (inactive)
same,GI50,CCRF-CEM,20.8 µM (inactive)
same,GI50,SF-295,68.7 µM (inactive)
same,GI50,U-251,68.2 µM (inactive)
same,GI50,LOX IMVI,56.1 µM (inactive)
same,GI50,HT-29,> 100 µM (inactive)
same,GI50,786-0,> 100 µM (inactive)
same,GI50,EKVX,> 100 µM (inactive)
same,GI50,SNB-75,56.4 µM (inactive)
same,GI50,SF-268,> 100 µM (inactive)
same,GI50,RXF 393,36 µM (inactive)
same,GI50,SNB-78,58.9 µM (inactive)
same,GI50,OVCAR-5,40.8 µM (inactive)
same,GI50,CAKI-1,> 100 µM (inactive)
same,GI50,KM-20L2,> 100 µM (inactive)
Cc1cc(=O)cc2sc3c(C)cccc3nc1-2,GI50,ACHN,49.1 µM (inactive)
same,GI50,HOP-62,95.3 µM (inactive)
same,GI50,A549,63.5 µM (inactive)
same,GI50,SN12C,23.6 µM (inactive)
same,GI50,HOP-18,41.9 µM (inactive)
same,GI50,SF-539,31.1 µM (inactive)
same,GI50,SK-MEL-5,17.7 µM (inactive)
same,GI50,OVCAR-4,15.8 µM (inactive)
same,GI50,M14,21.8 µM (inactive)
same,GI50,COLO 205,18.4 µM (inactive)
same,GI50,OVCAR-3,15.5 µM (inactive)
same,GI50,LXFL 529,12.2 µM (inactive)
same,GI50,KM12,22.5 µM (inactive)
same,GI50,NCI-H23,37.2 µM (inactive)
same,GI50,DLD-1,22.1 µM (inactive)
same,GI50,A498,23.3 µM (inactive)
same,GI50,HCC 2998,51.4 µM (inactive)
same,GI50,OVCAR-8,27.7 µM (inactive)
same,GI50,RXF 631,> 100 µM (inactive)
same,GI50,HOP-92,22.4 µM (inactive)
same,GI50,SR,22.9 µM (inactive)
same,GI50,SK-OV-3,> 100 µM (inactive)
same,GI50,MOLT-4,14.4 µM (inactive)
same,GI50,NCI-H522,25.1 µM (inactive)
same,GI50,TK-10,32.7 µM (inactive)
same,GI50,HCT-116,22.4 µM (inactive)
same,GI50,IGROV-1,24.9 µM (inactive)
same,GI50,RPMI-8226,19.9 µM (inactive)
same,GI50,NCI-H460,25.4 µM (inactive)
same,GI50,SK-MEL-28,23.1 µM (inactive)
same,GI50,M19-MEL,19.5 µM (inactive)
same,GI50,UO-31,28.6 µM (inactive)
same,GI50,SW-620,4.56 µM (inactive)
same,GI50,Malme-3M,92.7 µM (inactive)
same,GI50,HCT-15,48.1 µM
same,GI50,UACC-257,62.8 µM (inactive)
same,GI50,DMS-273,83.6 µM (inactive)
same,GI50,HL-60,18.9 µM (inactive)
same,GI50,SNB-19,> 100 µM (inactive)
same,GI50,CCRF-CEM,15.4 µM (inactive)
same,GI50,SF-295,35 µM (inactive)
same,GI50,U-251,37.1 µM (inactive)
same,GI50,LOX IMVI,17.3 µM (inactive)
same,GI50,K562,23.6 µM (inactive)
same,GI50,HT-29,35.1 µM (inactive)
same,GI50,SK-MEL-2,17.7 µM (inactive)
same,GI50,786-0,17.6 µM (inactive)
same,GI50,SNB-75,69.5 µM (inactive)
same,GI50,SF-268,11.5 µM (inactive)
same,GI50,RXF 393,35.4 µM (inactive)
same,GI50,SNB-78,53.6 µM (inactive)
same,GI50,OVCAR-5,49.9 µM (inactive)
same,GI50,CAKI-1,39.9 µM (inactive)
